Reference: patent publication US10801025B2, “MicroRNA therapy for pancreatic cancer” (Indiana University Research and Technology Corporation, priority 2016, dated 2020)

Assays:
Panc-1 cells = test: Autophagy flux immunoblotting (LC3B, p62); format: cell-based, human; conditions: 25 μM CQ added to control mimic cells
Method: Cells were then transfected with 10 nM control or miR-29a mimics using DharmaFECT®. 24 hours post-transfection, cells were treated with 25 μM CQ in complete media for 3-6 hours. Subsequently, total proteins were harvested and subjected to western blot analysis as described above.

[1] = tested on: Panc-1 and MIA PaCa-2 cells; test: Cell viability, Cell Counting Kit-8 (CCK8); format: cell-based, human; conditions: 10 μM BafA1 in combination with 10 μM gemcitabine, 48 hours, compared to gemcitabine alone
Method: 5×10^3 pancreatic cancer cells per well (Panc-1, MIA PaCa-2, or COLO 357) were plated in 96-well plates and grown at 37° C. for 24 hours. Cells were then transfected with 20 nM mimic control or miR-29a mimic using DharmaFECT® 1 for 24 hours. Transfection media was then removed and replaced with complete media, and cells were allowed to recover for 24 hours and subsequently treated with varying concentrations of gemcitabine (0 μM, 0.1 μM, 1 μM, 10 μM, 100 μM). Cell viability was measured at 72 hours post-gemcitabine treatment by adding 10 μl Cell Counting Kit-8 (CCK8) reagent (Dojindo, CK04) and absorbance was measured at 450 nm. For cell viability with Chloroquine (CQ) and BafilomycinA1 (BafA1) treatment, cells were treated with 25 μM CQ (Sigma Aldrich, C6628) or 10 μM BafA1 (Sigma Aldrich, B1793) in combination with 10 μM gemcitabine for 48 hours, and viability was measured using CCK8 kit as described above.

SMILES | LC3BI and II and p62 accumulation (Panc-1 cells) | cancer cell viability [1]
CCN(CC)CCCC(C)Nc1ccnc2cc(Cl)ccc12 (centres unmarked) [CQ, Chloroquine] | robust net increase | 
CO/C1=C\C(C)=C\[C@@H](C)[C@@H](O)[C@@H](C)C/C(C)=C/C=C/[C@H](OC)[C@@H]([C@@H](C)[C@@H](O)[C@H](C)[C@@]2(O)C[C@@H](O)[C@H](C)[C@@H](C(C)C)O2)OC1=O [BafA1, BafilomycinA1] |  | decreased cancer cell viability
